Assay results taken from PMC9841527 (Journal of Medicinal Chemistry, 2022).

Legend:
[1] = target: Dnmt3a-Dnmt3L (Mus musculus, UniProt O88508); format: biochemical
[2] = target: T1, Dam (Escherichia coli, UniProt P0AEE8); format: biochemical
T1 sequence (P0AEE8 1-278): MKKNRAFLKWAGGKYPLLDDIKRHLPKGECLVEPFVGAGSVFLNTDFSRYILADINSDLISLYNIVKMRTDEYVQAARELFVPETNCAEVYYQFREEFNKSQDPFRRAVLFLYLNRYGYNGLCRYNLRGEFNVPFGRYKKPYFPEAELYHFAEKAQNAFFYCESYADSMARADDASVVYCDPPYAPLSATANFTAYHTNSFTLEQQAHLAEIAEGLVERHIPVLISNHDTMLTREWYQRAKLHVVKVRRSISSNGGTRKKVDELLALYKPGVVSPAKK

[3] = target: PCIF1 (Homo sapiens, UniProt Q9H4Z3); format: biochemical
[4] = target: T2, CamA (Clostridioides difficile, UniProt Q183J3); format: biochemical
T2 sequence (Q183J3 1-577): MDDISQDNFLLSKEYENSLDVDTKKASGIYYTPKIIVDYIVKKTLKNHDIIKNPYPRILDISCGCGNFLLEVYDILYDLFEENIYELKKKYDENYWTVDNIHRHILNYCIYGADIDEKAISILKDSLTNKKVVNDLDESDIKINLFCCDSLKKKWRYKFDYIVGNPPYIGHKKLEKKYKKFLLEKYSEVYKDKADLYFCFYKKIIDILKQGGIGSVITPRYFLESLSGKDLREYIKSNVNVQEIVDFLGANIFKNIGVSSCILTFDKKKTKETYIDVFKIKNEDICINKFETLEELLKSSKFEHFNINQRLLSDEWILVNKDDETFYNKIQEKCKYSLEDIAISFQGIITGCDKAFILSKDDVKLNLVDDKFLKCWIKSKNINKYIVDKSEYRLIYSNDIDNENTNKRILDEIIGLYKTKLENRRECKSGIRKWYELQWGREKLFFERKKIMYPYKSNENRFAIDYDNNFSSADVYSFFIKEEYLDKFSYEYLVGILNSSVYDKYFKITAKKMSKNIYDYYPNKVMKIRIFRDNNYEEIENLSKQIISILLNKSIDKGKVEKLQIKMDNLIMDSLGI

[5] = target: EZH2 complex (Homo sapiens, UniProt Q15910); experiment: Selectivity assay, EZH2 complex; format: biochemical; conditions: compound 10 μM, 3H-SAM 1 μM
[6] = target: PRMT1 (Homo sapiens, UniProt Q99873); experiment: Selectivity assay, PRMT1; format: biochemical; conditions: compound 10 μM, 3H-SAM 1 μM
[7] = target: DNMT1 (Homo sapiens, UniProt P26358); experiment: Selectivity assay, DNMT1; format: biochemical; conditions: [I] = 10 μM, [SAM] = 5.5 μM, 37 °C
[8] = target: CcrM (Caulobacter vibrioides, UniProt P0CAW2); format: biochemical, Caulobacter crescentus

Sequence of EZH2 complex (Q15910 whole entry): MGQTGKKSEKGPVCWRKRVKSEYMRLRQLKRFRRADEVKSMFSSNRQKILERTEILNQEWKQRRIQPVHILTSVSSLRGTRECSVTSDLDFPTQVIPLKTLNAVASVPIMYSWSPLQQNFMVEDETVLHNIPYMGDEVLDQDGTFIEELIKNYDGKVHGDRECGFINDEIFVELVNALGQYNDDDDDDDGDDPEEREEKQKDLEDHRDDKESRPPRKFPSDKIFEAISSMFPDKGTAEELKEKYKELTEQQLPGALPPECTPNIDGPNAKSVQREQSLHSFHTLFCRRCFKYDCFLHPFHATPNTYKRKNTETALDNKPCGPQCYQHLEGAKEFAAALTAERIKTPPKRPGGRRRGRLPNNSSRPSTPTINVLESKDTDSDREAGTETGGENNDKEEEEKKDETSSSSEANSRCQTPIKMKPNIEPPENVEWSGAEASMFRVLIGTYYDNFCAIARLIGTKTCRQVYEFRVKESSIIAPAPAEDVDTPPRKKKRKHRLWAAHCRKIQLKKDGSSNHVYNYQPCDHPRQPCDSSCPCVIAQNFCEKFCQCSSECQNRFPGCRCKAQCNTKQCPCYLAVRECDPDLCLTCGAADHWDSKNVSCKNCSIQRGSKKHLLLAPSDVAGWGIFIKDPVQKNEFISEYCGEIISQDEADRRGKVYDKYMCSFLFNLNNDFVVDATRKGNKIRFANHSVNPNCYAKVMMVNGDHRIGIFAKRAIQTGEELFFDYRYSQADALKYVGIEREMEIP
Sequence of EZH2 complex (O75530 whole entry partner): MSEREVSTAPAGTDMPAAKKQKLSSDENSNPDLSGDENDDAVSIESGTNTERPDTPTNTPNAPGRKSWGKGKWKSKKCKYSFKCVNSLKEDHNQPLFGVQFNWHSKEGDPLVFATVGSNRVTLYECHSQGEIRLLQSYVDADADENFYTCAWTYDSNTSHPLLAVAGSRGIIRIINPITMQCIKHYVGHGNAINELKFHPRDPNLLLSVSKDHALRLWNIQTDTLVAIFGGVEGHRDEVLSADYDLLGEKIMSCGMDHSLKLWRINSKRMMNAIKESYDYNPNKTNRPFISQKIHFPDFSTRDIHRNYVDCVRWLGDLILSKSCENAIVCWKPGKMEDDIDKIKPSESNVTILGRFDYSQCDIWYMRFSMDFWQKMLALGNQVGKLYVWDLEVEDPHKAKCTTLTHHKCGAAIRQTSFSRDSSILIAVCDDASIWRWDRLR
Sequence of EZH2 complex (Q15022 whole entry partner): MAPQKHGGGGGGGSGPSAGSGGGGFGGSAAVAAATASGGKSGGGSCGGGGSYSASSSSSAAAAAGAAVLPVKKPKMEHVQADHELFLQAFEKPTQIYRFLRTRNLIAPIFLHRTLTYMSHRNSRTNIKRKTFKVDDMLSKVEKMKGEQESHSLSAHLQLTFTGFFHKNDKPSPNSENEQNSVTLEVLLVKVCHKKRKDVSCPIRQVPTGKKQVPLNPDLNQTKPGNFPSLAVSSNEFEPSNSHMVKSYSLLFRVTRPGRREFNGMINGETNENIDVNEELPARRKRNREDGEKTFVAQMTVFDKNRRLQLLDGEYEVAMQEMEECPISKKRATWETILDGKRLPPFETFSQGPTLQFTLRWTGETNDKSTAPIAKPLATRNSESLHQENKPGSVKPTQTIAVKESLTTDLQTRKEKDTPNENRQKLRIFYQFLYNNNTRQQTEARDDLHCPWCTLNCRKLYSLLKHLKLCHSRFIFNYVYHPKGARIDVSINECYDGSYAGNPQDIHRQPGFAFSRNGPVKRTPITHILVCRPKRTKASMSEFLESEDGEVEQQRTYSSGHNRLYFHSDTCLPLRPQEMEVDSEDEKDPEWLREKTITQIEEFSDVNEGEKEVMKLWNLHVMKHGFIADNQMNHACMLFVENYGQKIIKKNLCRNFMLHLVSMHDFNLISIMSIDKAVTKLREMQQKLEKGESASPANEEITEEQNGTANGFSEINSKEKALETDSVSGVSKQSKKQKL
Sequence of EZH2 complex (Q09028 whole entry partner): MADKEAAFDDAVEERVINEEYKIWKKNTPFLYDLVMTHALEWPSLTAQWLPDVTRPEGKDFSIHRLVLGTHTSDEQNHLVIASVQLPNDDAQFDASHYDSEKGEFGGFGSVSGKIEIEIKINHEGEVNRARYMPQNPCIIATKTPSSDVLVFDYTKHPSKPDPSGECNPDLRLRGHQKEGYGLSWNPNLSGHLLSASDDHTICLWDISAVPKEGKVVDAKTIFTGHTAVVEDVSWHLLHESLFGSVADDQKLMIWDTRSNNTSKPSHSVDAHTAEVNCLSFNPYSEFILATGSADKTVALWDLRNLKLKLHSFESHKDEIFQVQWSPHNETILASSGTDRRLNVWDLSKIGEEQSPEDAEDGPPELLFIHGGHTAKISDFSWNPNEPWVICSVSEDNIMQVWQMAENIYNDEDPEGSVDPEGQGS
Sequence of EZH2 complex (Q6ZN18 whole entry partner): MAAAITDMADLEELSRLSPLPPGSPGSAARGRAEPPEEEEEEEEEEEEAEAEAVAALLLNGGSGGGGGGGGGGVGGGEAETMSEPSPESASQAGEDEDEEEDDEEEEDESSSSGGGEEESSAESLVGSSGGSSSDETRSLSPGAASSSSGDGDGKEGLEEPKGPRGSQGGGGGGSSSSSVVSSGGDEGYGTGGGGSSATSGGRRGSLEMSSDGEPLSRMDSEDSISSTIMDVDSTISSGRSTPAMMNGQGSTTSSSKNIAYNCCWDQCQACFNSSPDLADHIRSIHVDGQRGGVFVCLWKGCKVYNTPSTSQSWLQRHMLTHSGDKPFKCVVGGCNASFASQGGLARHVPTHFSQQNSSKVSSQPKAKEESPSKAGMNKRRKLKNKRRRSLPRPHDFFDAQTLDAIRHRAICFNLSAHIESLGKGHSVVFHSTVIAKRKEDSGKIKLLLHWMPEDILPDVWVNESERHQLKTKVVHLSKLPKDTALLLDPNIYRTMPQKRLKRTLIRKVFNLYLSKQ
Sequence of DNMT1 (P26358 351-1600): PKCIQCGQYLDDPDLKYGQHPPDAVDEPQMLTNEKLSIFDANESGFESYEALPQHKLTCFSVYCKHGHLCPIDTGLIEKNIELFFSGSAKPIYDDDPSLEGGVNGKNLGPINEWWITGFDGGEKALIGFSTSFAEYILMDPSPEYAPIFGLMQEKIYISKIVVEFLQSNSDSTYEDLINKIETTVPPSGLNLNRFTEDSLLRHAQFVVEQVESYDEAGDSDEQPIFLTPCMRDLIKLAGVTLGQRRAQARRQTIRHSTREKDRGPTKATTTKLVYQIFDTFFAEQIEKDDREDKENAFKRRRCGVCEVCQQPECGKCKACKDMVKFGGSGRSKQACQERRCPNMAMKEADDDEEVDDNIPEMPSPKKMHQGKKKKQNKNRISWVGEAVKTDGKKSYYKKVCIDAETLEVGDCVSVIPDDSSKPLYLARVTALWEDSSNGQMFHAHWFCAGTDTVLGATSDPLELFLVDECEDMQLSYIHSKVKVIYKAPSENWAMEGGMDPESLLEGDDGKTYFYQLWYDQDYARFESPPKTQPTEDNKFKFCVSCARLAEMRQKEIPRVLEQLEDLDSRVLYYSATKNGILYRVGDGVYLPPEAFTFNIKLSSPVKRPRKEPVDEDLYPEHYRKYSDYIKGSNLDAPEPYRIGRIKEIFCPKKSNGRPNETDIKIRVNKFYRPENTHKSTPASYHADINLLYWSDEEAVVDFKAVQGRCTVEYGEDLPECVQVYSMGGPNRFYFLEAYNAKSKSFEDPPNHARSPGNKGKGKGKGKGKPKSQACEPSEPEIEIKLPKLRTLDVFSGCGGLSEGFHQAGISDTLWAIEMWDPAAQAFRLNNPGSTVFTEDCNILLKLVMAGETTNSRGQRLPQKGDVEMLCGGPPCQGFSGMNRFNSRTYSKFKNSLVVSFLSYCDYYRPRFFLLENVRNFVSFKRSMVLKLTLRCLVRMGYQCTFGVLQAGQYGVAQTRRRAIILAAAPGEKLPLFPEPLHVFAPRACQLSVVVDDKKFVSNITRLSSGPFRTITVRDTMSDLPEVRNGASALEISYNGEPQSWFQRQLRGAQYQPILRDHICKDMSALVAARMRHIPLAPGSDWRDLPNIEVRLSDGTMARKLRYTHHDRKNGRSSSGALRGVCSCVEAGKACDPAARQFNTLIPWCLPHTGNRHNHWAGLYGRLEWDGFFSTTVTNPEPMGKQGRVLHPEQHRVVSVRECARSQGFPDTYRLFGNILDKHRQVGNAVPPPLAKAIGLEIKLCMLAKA
Sequence of PCIF1 (Q9H4Z3 whole entry): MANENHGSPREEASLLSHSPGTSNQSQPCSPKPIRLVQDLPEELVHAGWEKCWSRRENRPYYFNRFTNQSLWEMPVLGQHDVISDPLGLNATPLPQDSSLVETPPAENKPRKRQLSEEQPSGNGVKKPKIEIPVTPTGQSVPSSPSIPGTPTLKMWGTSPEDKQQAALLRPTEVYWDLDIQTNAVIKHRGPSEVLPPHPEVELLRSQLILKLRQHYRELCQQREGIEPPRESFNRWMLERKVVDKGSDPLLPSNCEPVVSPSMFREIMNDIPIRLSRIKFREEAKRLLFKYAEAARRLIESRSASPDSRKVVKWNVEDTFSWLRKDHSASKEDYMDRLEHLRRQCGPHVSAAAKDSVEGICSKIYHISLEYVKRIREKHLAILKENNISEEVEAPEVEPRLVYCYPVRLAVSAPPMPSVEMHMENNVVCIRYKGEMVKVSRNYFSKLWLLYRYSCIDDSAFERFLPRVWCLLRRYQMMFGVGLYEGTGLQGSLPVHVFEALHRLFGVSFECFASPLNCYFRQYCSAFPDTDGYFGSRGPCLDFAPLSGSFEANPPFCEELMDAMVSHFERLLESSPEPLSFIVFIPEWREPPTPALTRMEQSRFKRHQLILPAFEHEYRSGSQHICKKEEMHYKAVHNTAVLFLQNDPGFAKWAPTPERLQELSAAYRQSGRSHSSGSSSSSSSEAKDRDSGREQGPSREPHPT

SMILES	inhibition of Dnmt3a-Dnmt3L [1]	inhibition of Dam [2]	inhibition of PCIF1 [3]	lower IC50 value, fold [4] [X]	inhibition of EZH2 complex [5]	inhibition of PRMT1 [6]	inhibition of DNMT1 [7]	inhibition of CcrM [8]	higher potency, fold [4] [×]
OC[C@H]1O[C@@H](n2cnc3c(NCCCc4ccc(O)cc4)ncnc32)[C@H](O)[C@@H]1O [Compound 16, (2R,3S,4R,5R)-2-(Hydroxymethyl)-5-(6-((3-(4-hydroxyphenyl)propyl)amino)-9H-purin-9-yl)tetrahydrofuran-3,4-diol]	none of them showed any significant inhibition	none of them showed any significant inhibition	none of them showed any significant inhibition	~2.7	none of them showed any significant inhibition	none of them showed any significant inhibition	none of them showed any significant inhibition	none of them showed any significant inhibition	–
CC(C)(C)OC(=O)N1CCC(CCCNc2ncnc3c2ncn3[C@@H]2O[C@H](CO)[C@@H](O)[C@H]2O)CC1 [Compound 39, tert-Butyl-4-(3-((9-((2R,3R,4S,5R)-3,4-dihydroxy-5-(hydroxymethyl)tetrahydrofuran-2-yl)-9H-purin-6-yl)amino)propyl)piperidine-1-carboxylate]	none of them showed any significant inhibition	none of them showed any significant inhibition	none of them showed any significant inhibition	–	none of them showed any significant inhibition	none of them showed any significant inhibition	none of them showed any significant inhibition	none of them showed any significant inhibition	12
